Values after ≈ are worked out from the molar mass of the structure shown. Where two headings read alike, the source gives them in different places.
Key:
[1] = Hepatocyte incubation, metabolic profile, human; assay type: in vitro ADME
[2] = Toxicology study in the rat, s.c. Q3D for 28 days; assay type: in vivo, Sprague Dawley rats; settings: for NOAEL at 28 days / Cmax / AUC(0-t): Sprague Dawley, rat, in vivo, sc; for NOAEL at 28 days / Mortality/early euthanasia: s.c. Q3D, 4 weeks; for AUC(0-t): read-out: AUC0-t at NOAEL; for Mortality/early euthanasia: rats
Procedure: Male and female Sprague Dawley rats 9-10 weeks of age (Envigo RMS, Inc., Indianapolis, Ind. or Orient Bio Inc., Gyeonggi-do, South Korea) were individually housed at the testing facility. […] Animals were allocated to treatment groups based on body weight, and body weight and food consumption were recorded weekly. […] At necropsy, macroscopic pathologic findings were recorded, sperm motility and morphology were determined, selected organs were weighed, and selected tissues were collected for microscopic examination.

[3] = Hepatocyte incubation, metabolic profile, dog; assay type: in vitro ADME
[4] = Pharmacokinetic study in dogs, single s.c. injection (Example 3); settings: both, beagle, dog, plasma, sc, 0.6 mg/kg
Procedure: Male and female beagle dogs of 9 to 11 months of age for PK characterization were individually housed at the testing facility Approximately 325 g of pelleted food was provided daily. […] Animals were observed twice daily for signs of ill health, morbidity, mortality, injury, and viability, and detailed clinical observations were conducted daily (including urine/fecal examination and hands-on examination). Food was weighed daily, and body weights were recorded at least weekly.
Samples were collected in tubes containing lithium heparin and processed for plasma by centrifugation (10 minutes at 3000 rpm). Supernatant was removed and stored frozen (−70° C.) until processed (BASi, West Lafayette, Ind.). Plasma drug concentration data were used to calculate PK parameters for individual concentration data using noncompartmental PK methods in Watson™ version 7.3.0.01 (Thermo Fisher Scientific, Inc., Waltham, Mass.).

[5] = Pharmacokinetics after intravenous administration in rats; settings: in vivo, Rat, IV Bolus, 3 mg/kg
Procedure: (§1) Animal experiments were performed in accordance with the Guide for the Care and Use of Laboratory Animals as adopted and promulgated by the U.S. National Institutes of Health or local equivalent and were approved by the Institution's Animal Care and Use Committee or local equivalent. Unless described otherwise, animals (mouse, rat, and dog studies) were maintained under standard conditions (12-hour light/dark cycle and approximately 21±4° C. and 55±15% relative humidity), and food (Rodent pellet chow [Research Diets, Brunswick N.J., or similar] or canine pellet [Certified Dog Diet 2021C, Harlan Teklad Diets, Madison, Wis.] or canned [i.e., Cesar® Mars Petcare, Victoria, Australia]) and water were available ad libitum. Unless described otherwise, drug formulations were administered s.c. daily (efficacy studies) or every 3 days (Q3D; safety studies).

[6] = Pharmacokinetics after intravenous administration in dogs; settings: in vivo, Dog, IV Bolus, 0.142 mg/kg
Procedure: as §1

[7] = Major metabolites in rats dosed SC; assay type: in vivo
[8] = Protein binding in dog plasma (dialysis); assay type: in vitro ADME; settings: Dog Plasma, read-out: % Bound (Mean) (converted)
[9] = Protein binding in mouse plasma (dialysis); assay type: in vitro ADME; settings: read-out: % Bound (Mean) (converted)
[10] = Pharmacokinetics after subcutaneous administration in rats; assay type: in vivo; settings: plasma; Rat, SC, 6 mg/kg
Procedure: as §1
(§2) Assessment of differences in pharmacokinetics following subcutaneous administration reflect both differences in the pharmacokinetic properties of the compounds and differences in pharmaceutical factors that affect absorption of the formulations from the injection sites.

[11] = Hepatocyte incubation, metabolic profile, rat; assay type: in vitro ADME
[12] = Pharmacokinetics after subcutaneous administration in rabbits; assay type: in vivo, Rabbit
From the text: as §2

[13] = Pharmacokinetics after subcutaneous administration in humans; assay type: in vivo, Human; settings: Human, SC, 2 mg
From the text: as §2

[14] = pKa (physicochemical properties)
[15] = Protein binding in human plasma (dialysis); assay type: in vitro ADME; settings: Human Plasma, 120 nM; read-out: % Bound (Mean) (converted)
Solubility (pH 7) = assay type: physicochemical; settings: pH 7, aqueous buffer
[16] = logD7.4 (physicochemical properties); settings: pH 7.4
[17] = Pharmacokinetics after subcutaneous administration in dogs; assay type: in vivo; settings: beagle, plasma, Dog, SC, 0.6 mg/kg
Procedure: as §1, §2

[18] = Duration of plasma exposure after subcutaneous dosing, summary over species; assay type: in vivo, rat, dog, rabbit, human
[19] = Protein binding in rat plasma (dialysis); assay type: in vitro ADME; settings: Rat Plasma, read-out: % Bound (Mean) (converted)
[20] = female, 2 mg/kg, Day 1, female rats, NOAEL 2 mg/kg
[21] = female, 2 mg/kg, Day 31, female rats, NOAEL 2 mg/kg
[22] = male, 0.6 mg/kg, Day 1, male rats, NOAEL 0.6 mg/kg
[23] = male, 0.6 mg/kg, Day 31, male rats, NOAEL 0.6 mg/kg

In the case of CO[C@@H]1[C@H](OC(=O)/C=C/c2ccc(OCCN(C)C)cc2)CC[C@]2(CO2)[C@H]1[C@@]1(C)O[C@@H]1CC=C(C)C [beloranib, reference compound], the “metabolic profile / predominant pathway in hepatocytes” value [1] is reported as “glutathione (GSH) conjugation pathways being predominant”, the NOAEL at 28 days ([2]; female rats, read-out: NOAEL (F)) is reported as 2 mg/kg and the NOAEL at 28 days ([2]; male rats, read-out: NOAEL) is reported as 0.6 mg/kg. It also gave a Cmax [2, 20] of 28.5 ng/mL, an AUC(0-t) [2, 20] of 96.9 ng·h/mL and a Cmax [2, 21] of 19.2 ng/mL. The AUC(0-t) [2, 21] was 56.7 ng·h/mL, the Cmax [2, 22] was 19.2 ng/mL and the AUC(0-t) [2, 22] was 36.8 ng·h/mL. For the same molecule, the Cmax [2, 23] was 8.17 ng/mL, the AUC(0-t) [2, 23] was 29 ng·h/mL and the Mortality/early euthanasia [2] was “mortality was noted by Days 16-24”. The Mortality/early euthanasia ([2]; listed as Beloranib) was 4/15 males in the 6 mg/kg dose, the “metabolic profile / predominant pathway in hepatocytes” value [3] was “glutathione (GSH) conjugation pathways being predominant” and the half-life [4] was 9.3 h. The clearance [5] was 113 mL/min/kg, the half-life [5] was 1.05 ± 0.23 h and the Vd ([5]; read-out: Vdss) was 5.08 ± 0.29 L/kg. The clearance [6] was 33.3 mL/min/kg, the half-life [6] was 2.9 ± 0.29 h and the Vd ([6]; read-out: Vdss) was 5.07 ± 0.23 L/kg. The “pathway giving the major metabolites observed” value [7] was “GSH conjugation and subsequent metabolic degradation of the GSH conjugates”, the fraction unbound at 480 nM ([8]; 480 nM) was 0.045 and the fraction unbound at 1000 nM ([8]; 1000 nM) was 0.059. The fraction unbound at 60 nM ([9]; 60 nM) was 0.0181, the fraction unbound at 120 nM ([9]; 120 nM) was 0.0191 and the fraction unbound at 240 nM ([9]; 240 nM) was 0.0259. It also gave a fraction unbound at 480 nM ([9]; 480 nM) of 0.0222, a fraction unbound at 1000 nM ([9]; 1000 nM) of 0.0212 and a fraction unbound ([9]; All concentrations) of 0.0213. It also gave an AUC(0-t) [10] of 412 ng·h/mL, a Cmax [10] of 270 ng/mL and a Tmax [10] of 0.5 h. For the same molecule, the half-life [10] was 1.8 h, the “metabolic profile / predominant pathway in hepatocytes” value [11] was “glutathione (GSH) conjugation pathways being predominant” and the AUC(0-t) ([12]; plasma, Rabbit, SC, 1 mg/kg) was 222 ± 9 ng·h/mL. It also gave a Cmax ([12]; plasma, Rabbit, SC, 1 mg/kg) of 52 ± 4.1 ng/mL, a Tmax ([12]; plasma, Rabbit, SC, 1 mg/kg) of 1.7 ± 0.6 h and a half-life ([12]; plasma, Rabbit, SC, 1 mg/kg) of 1.7 ± 0.3 h. For the same molecule, the “plasma concentration at 8 hours after dosing” value ([12]; rabbit, subcutaneous) was “still quantifiable”, the kel [13] was 0.0885 ± 0.0266 h⁻¹ and the AUC(0-inf) ([13]; plasma) was 5.44 ± 1.81 ng·h/mL. For the same molecule, the half-life ([13]; plasma) was 8.44 ± 2.49 h, the Cmax ([13]; plasma, read-out: Cmax) was 1 ± 1.1 ng/mL and the Tmax ([13]; plasma, read-out: Tmax) was 1.58 ± 1.28 h. It also gave a pKa [14] of 9.4, a fraction unbound at 120 nM [15] of 0.0544 and a solubility (Solubility (pH 7)) of 300 µg/mL (≈ 600 µM). The logD7.4 [16] was 2.72, the AUC(0-t) [17] was 182 ± 73 ng·h/mL and the Cmax [17] was 16.6 ± 12.3 ng/mL. For the same molecule, the Tmax [17] was 3.5 ± 1 h, the half-life ([17]; N = 1) was 7.84 h and the “interval between doses with plasma concentrations at background / minimal exposure” value ([18]; dosing once every 3 days in animals and twice a week in humans) was “approximately 48 hours”. For the same molecule, the “plasma concentration at 24 hours after dosing” value ([18]; subcutaneous, rat, dog, and human) was “quantifiable”, the fraction unbound at 60 nM ([19]; 60 nM) was 0.0285 and the fraction unbound at 120 nM ([19]; 120 nM) was 0.055. It also gave a fraction unbound at 240 nM ([19]; 240 nM) of 0.0415, a fraction unbound at 480 nM ([19]; 480 nM) of 0.0326 and a fraction unbound at 1000 nM ([19]; 1000 nM) of 0.0434. The fraction unbound ([19]; All concentrations) was 0.0402.

From patent US20200030278A1, “PHARMACEUTICAL COMPOSITIONS OF METAP-2 INHIBITORS” (Zafgen, Inc., priority 2017, published 2020)
